The subject of assay [1] is TAA-induced liver disease mouse models. As to the kind of experiment: TAA-induced liver disease mouse model. In kind it is in vivo. As to conditions: TAA mice; for ALT levels / AST blood levels: blood, mean±S.E.M. As for the experimental part:
(§1) To confirm the effects of the compounds of Formula A1 to A5 (CBM-N1˜N5) according to the present invention on liver inflammation and fibrosis, subsequent experiments were performed on […] wild-type mouse (purchased from Orient Bio). First, to induce liver disease in mice, thioacetamide (TAA) were administered to the mice (Experiment A), or the mice were raised on a western diet inducing fatty liver disease (Experiment B). The mice were divided into a normal control, a disease-induced group, and a drug-administered group, and among these three groups, […] were used in each group for Experiment A, and 10 mice were used in each group for Experiment B. A drug treatment method for the mice in each group is as follows:
(§2) (1) Normal control: The normal control in Experiment A was intraperitoneally injected three times a week with the same amount of TAA solvent used when TAA was injected into a disease-induced group, and the normal control in Experiment B was raised on a normal diet. In both of the Experiments A and B, a CM/1-N1 solvent was injected using an oral tube at the same amount as that of CBM-N1 injection five times a week. The TAA solvent was distilled water, the CBM-N1 solvent and a derivative thereof were a 1:1 mixture of DMSO and distilled water. In the accompanying drawings, C or Control refers to a normal control.
(2) Disease-induced group: The disease-induced group in the Experiment A was intraperitoneally injected with TAA at 100 mg/kg three times a week, the disease-induced group in the Experiment B was raised on a western diet (WD, 45% saturated fat, […], and water containing fructose and glucose). All CBM-N1 solvents in the Experiments A and B were administered using an oral tube at the same amount as that of CBM-N1 administration five times a week. In the accompanying drawings, TAA refers to a group in which a disease is induced by TAA, and \VD refers to a group in which a disease is induced by a western diet.
(3) Drug-administered group: In the Experiment A, the compounds of Formulas 1 to 5 (50 mg/kg/day, 5 times/week e administered with TAA (100 mg/kg, 3 times/week), and in the Experiment B, CBM-N1 to N5 (50 mg/kg/day, 5 times/week) were administered with a western diet. The mice treated by the above-described method for 16 weeks were instantly killed by excessively administering an anesthetic, and then the livers and blood were extracted. In the accompanying drawings, TAA+CBM-Ni, TAA+CBM-N2, TAA+CBM-N3, TAA+CBM-N4 and TAA+CBM-N5 refer to disease-induced groups to which the compounds of Formulas A1 to A5 were administered, respectively.
To histologically confirm the therapeutic effect of the compound of Formula A1 (CBM-N1) or the compound of Formula A9 (CBM-N9) in each mouse model, a paraffin tissue sample was prepared. Liver and lung tissues were fixed with a paraformaldehyde solution, and sliced to a thickness of 1 to 2 mm. The sectioned tissues were embedded in paraffin, sliced to a thickness of 4 μm to remove paraffin with xylene, and the xylene was removed with ethanol, followed by washing with tap water. The resulting tissues were subjected to hematoxylin and eosin staining (H&E staining) or immunohistochemistry.
(1) H&E staining: Nuclei were first stained (blue) with a Harris hematoxylin staining solution for 5 minutes, and counter-stained (pink) with an eosin solution.
(2) Immunohistochemistry for inflammation markers: Inflammation markers (CD82 and CD45) were stained with specific antibodies, and lymphoid cells were stained brown.
(3) Immunohistochemistry for fibrosis markers: Collagen was stained by Masson's trichrome staining, or reticulin fibers were stained by reticulin staining.
Aspartic acid aminotransferase (AST, GOT) and alanine aminotransferase (ALT, GPT), total bilirubin and albumin concentrations were measured using blood collected from liver disease mouse models. […]

Assay [2] has as its system fibrosis markers (α-SMA, collagen 1α, collagen 3α) in fibroblasts. As to the kind of experiment: Expression of fibrosis markers in fibroblasts exposed to TGFβ (western blotting). The following applies: fibroblasts exposed to TGFβ (5 ng/ml) + compound for 24 hours. Type of assay: cell-based. On the procedure:
(§3) Fibroblasts (CRL-2795; American Type Culture Collection, VA) were cultured in a Dulbecco's Modified Eagle Medium (Hyclone, Logan, Utah), human uterine microvascular endothelial cells (PromoCell GmbH, Heidelberg, Germany) were cultured in an MV2 medium (PromoCell GmbH), and human hepatic stellate cells (Innoprot, Bizkia, Spain) were cultured in a P60126 medium (Innoprot).
(§4) All cells were maintained under a 5% humidified carbon dioxide condition at 37° C. The cultured cells were exposed to each of PDGF, TGFβ, and the compounds of Formulas A1 to A9 (CBM-N1 N9) for 24 hours, followed by performing experiments.
(§5) Cells were lysed with a protein extraction buffer solution, a protein concentration in a supernatant was determined by Bradford analysis, and […] of the protein was loaded on an SDS-PAGE gel and then transferred to a nitrocellulose membrane. The nitrocellulose membrane was blocked with 5% BSA-containing TEST (10 mM Tris-HCl, 150 mM NaCl, and 0.1% (v/v) Tween-20, pH 7.6) at room temperature for 1 hour. Blots were incubated overnight with primary antibodies, and then incubated with horseradish peroxidase-conjugated secondary antibodies for 1 hour. Bands were visualized by chemiluminescence. Data collection and processing were performed using an image analyzer (LAS-3000) and IMAGE GAUSE software (Fuji film, Japan).

In assay [3] the test system is KCa2.3 channel. In words: KCa2.3 channel expression in vascular endothelial cells (real-time PCR, western blotting). In kind it is cell-based, human. On the procedure: as §3, §4
The mRNA expression levels of inflammation or fibrosis factors in extracted liver tissue were measured by real-time PCR. RNA of the liver tissue was isolated with a TRIzol reagent (Molecular Research Center, Cincinnati, Ohio), and single-stranded cDNA was synthesized using BcaBEST polymerase (TakaraShuzo), followed by a polymerase chain reaction.
Cells were lysed with a protein extraction buffer solution, a protein concentration in a supernatant was determined by Bradford analysis, and […] of the protein was loaded on an SDS-PAGE gel and then transferred to a nitrocellulose membrane. The nitrocellulose membrane was blocked with 5% BSA-containing TEST (10 mM Tris-HCl, 150 mM NaCl, and 0.1% (v/v) Tween-20, pH 7.6) at room temperature for 1 hour. […]

Assay [4] relates to western diet-induced liver disease mouse models. In words: Western diet-induced liver disease mouse model. Type of assay: in vivo. As to conditions: western diet mice. On the procedure: as §1, §2
(2) Disease-induced group: The disease-induced group in the Experiment A was intraperitoneally injected with TAA at 100 mg/kg three times a week, the disease-induced group in the Experiment B was raised on a western diet (WD, 45% saturated fat, […], and water containing fructose and glucose). […]
Aspartic acid aminotransferase (AST, GOT) and alanine aminotransferase (ALT, GPT), total bilirubin and albumin concentrations were measured using blood collected from liver disease mouse models.
The mRNA expression levels of inflammation or fibrosis factors in extracted liver tissue were measured by real-time PCR. […]

Assay [5] deals with KCa2.3 channel. In words: KCa2.3 channel protein expression in fibroblasts (western blotting). Type of assay: cell-based. On the procedure:
as §3, §4, §5

The subject of a further assay is fibroblasts. As to the kind of experiment: MTT cell proliferation in fibroblasts exposed to TGFβ or PDGF. In kind it is cell-based. On the procedure: as §3, §4
Cells were seeded in 96-well plates at 2×10^4 cells/well, and then exposed to TGFB, which promotes cell proliferation, for 24 hours. In addition, 0.1 mg of MTT was added to each well, followed by exposure for 4 hours at 37° C. Afterward, the culture medium was removed, the cells were lysed with dimethyl sulfoxide, and then absorbance was measured at 590 nm using the following devices.

The test system of assay [6] is KCa2.3 channel. As to the kind of experiment: KCa2.3 channel protein expression in hepatic stellate cells (western blotting). In kind it is cell-based, human. The following applies: exposure for 24 hours. On the procedure:
as §3, §4, §5

In the next assay the test system is KCa3.1 channel. As to the kind of experiment: KCa3.1 channel expression in vascular endothelial cells. Type of assay: cell-based, human. As to conditions: PDGF treatment, 24 hours. On the procedure: as §3, §4, §5
Setting [7] is: liver tissue, versus disease-induced group.
Where [8] appears, read: blood, 50 mg/kg/day, 16 weeks, mean±S.E.M.

Chain of KCa3.1 channel (O15554 whole entry): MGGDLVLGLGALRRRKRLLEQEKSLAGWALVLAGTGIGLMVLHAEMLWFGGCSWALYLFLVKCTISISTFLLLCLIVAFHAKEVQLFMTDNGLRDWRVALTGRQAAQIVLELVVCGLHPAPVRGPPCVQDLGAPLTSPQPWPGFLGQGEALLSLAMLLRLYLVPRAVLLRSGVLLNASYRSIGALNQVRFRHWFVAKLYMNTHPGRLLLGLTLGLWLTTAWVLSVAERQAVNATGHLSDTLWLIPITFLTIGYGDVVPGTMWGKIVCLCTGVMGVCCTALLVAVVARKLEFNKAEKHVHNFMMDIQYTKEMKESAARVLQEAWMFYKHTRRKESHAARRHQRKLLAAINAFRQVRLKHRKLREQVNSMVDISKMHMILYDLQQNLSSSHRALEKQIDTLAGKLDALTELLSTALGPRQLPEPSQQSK

With `NC(=O)C[S+]([O-])C(c1ccccc1)c1ccccc1` (stereo not shown) [CBM-N1, 2-(benzhydrylsulfinyl)acetamide], in assay [1] (50 mg/kg/day, 16 weeks, versus disease-induced group), the “number of inflammation cells (H&E staining of liver tissue)” value was “significantly decreased”. In addition, the ALT levels is listed as 70.3±14.7 units/L in assay [1] (50 mg/kg/day, 16 weeks) and 87.2±24.7 units/L in assay [4] (setting [8]). In addition, the AST blood levels in assay [1] (50 mg/kg/day, 16 weeks) was 62.7±11.6 units/L; in assay [4] (setting [8]), 71.4±19.8 units/L. Also, the “mRNA expression levels of fibrosis markers (Col1α, Col3α, Col4α, α-SMA, TGFR2)” value in assay [1] (liver tissue) is given as “decreased”. Moreover, the “mRNA level of inflammation factors (inflammatory cytokines TNFα, CCL2, IL12, TGF, IL1α, IL6, MIP-2)” value (from here on “mRNA level of inflammation factors”) in assay [1] (setting [7]) is “decreased”. For the same compound, in assay [2], the “expression levels of the fibrosis markers (α-SMA, collagen 1α, collagen 3α proteins)” value is “reduced”. In addition, the “expression of the KCa2.3 channel protein” value in the assay with KCa2.3 channel [3] (vascular endothelial cells with KCa2.3 expression increased with PDGF, treated for 24 hours) is “significantly decreased”; with KCa2.3 channel [6] it was “reduced in hepatic stellate cells in a concentration-dependent manner”. Also, the “mRNA expression levels of inflammatory cytokines CCL2, IL6 and IL1α” value in assay [4] (setting [7]) is reported as “decreased”. For the same compound, in the assay with KCa2.3 channel [5], the “expression level of the KCa2.3 channel protein” value is “reduced”. Besides, the cell proliferation entry in the assay on fibroblasts (fibroblasts exposed to TGFβ (5 ng/ml) + compound for 24 hours) is “inhibited”.

In assay [1] (50 mg/kg/day, 16 weeks), `O=C(CSC(c1ccccc1)c1ccccc1)Nc1ccccc1` [CBM-N3, 2-(benzhydrylthio)-N-phenylacetamide] had an ALT levels of 103.0±6.9 units/L and an AST blood levels of 73.4±7.4 units/L. Further, in assay [1] (setting [7]), the “mRNA level of inflammation factors” value was “decreased”.

Regarding `O=C(CSC(c1ccccc1)c1ccccc1)NCC1CCCO1` (stereo not shown) [CBM-N2, 2-(benzhydrylthio)-N-[(tetrahydrofuran-2-yl)methyl]acetamide], in assay [1] (50 mg/kg/day, 16 weeks), the ALT levels came to 113.4±7.9 units/L and the AST blood levels is 83.6±14.8 units/L. Moreover, the “mRNA level of inflammation factors” value in assay [1] (setting [7]) is “decreased”. The “expression of the KCa2.3 channel protein” value in the assay with KCa2.3 channel [6] is on record as “significantly reduced”.

For the compound `CNC(=O)C[S+]([O-])C(c1ccccc1)c1ccccc1` (stereo not shown) [CBM-N4, 2-(benzhydrylsulfinyl)-N-methylacetamide], in assay [1] (50 mg/kg/day, 16 weeks), the ALT levels is on record as 114.1±8.8 units/L and the AST blood levels is 66.6±9.4 units/L. In addition, the “mRNA level of inflammation factors” value in assay [1] (setting [7]) is “decreased”.

In the case of `O=C(C[S+]([O-])C(c1ccccc1)c1ccccc1)NCC1CCCO1` (stereo not shown) [CBM-N5, 2-(benzhydrylsulfinyl)-N-[(tetrahydrofuran-2-yl)methyl]acetamide], in assay [1] (50 mg/kg/day, 16 weeks), the ALT levels turned out to be 106.4±12.8 units/L and the AST blood levels was determined as 67.7±10.2 units/L. In addition, the “mRNA level of inflammation factors” value in assay [1] (setting [7]) is given as “decreased”. For the same compound, in the assay on KCa2.3 channel [6], the “expression of the KCa2.3 channel protein” value is given as “significantly reduced”.

As to PDGF, in the assay with KCa2.3 channel [3] (vascular endothelial cells exposed to PDGF (20 ng/ml) or TGF (5 ng/ml) for 24 hours), the “expression of the mRNA and protein of the KCa2.3 channel” value is “increased”. In the assay on KCa3.1 channel, the “expression of the KCa3.1 channel” value was “did not increase”.

As for `NC(=O)C[S+]([O-])C(c1cccc(F)c1)c1cccc(F)c1` (stereo not shown) [CBM-N8, 2-[bis(3-fluorophenyl)methanesulfinyl]acetamide], the “TGFβ or PDGF-induced cell proliferation” value in the assay with fibroblasts (fibroblasts, TGFβ (5 ng/ml) or PDGF (20 ng/ml), 24 hours) was “significantly reduced”. The “expression of the KCa2.3 channel protein” value in the assay on KCa2.3 channel [6] is on record as “significantly reduced”.
